Here are results for one compound from patent US9738902B2, “Modified PYR/PYL receptors activated by ligands” (priority 2013, dated 2017).

In test [1] the test system is 35S::GFP-PYR1 expressing transgenic plants. The test is described as follows: thermal imaging of leaf temperature. In kind it is in vivo, Arabidopsis. Particulars: 35S::GFP-PYR1, 2 μM, 24 hours. How it is done:
(§1) To investigate if the system is sufficient to control ABA responses in vegetative tissues, we generated homozygous transgenic lines for two 35S-driven lines (E15 and E16) and 2 RBCS-driven lines (F29 and F34). These materials were grown along side wild type plants and a previously constructed 35S::GFP-PYR1 over expression line (Park et al., 2009). These plants were grown until three weeks old and then treated with a solution containing either 2 μM mandipropamid and 0.02% Silwet or a mock treatment containing 0.02% Silwet and the mandipropamid carrier solvent (DMSO). 24 hours after treatment, the leaf temperatures were examined using a thermal imaging camera. It is well known that ABA-induced guard cell closure reduces transpiration, which leads to increases in leaf temperatures. […] Since guard cell aperture is the primary determinant of transpiration rates, thermal imaging is a useful way to indirectly infer relative transpiration rates and guard cell aperture at the whole plant level. As is shown in FIG. 3, mandipropamid treatment of homozygous PYR1^MANDI expressing transgenic plants leads to large changes in leaf temperature (˜2° C. increase) within 24 hours of treatment.

The next test concerns wild type plants. The test is described as follows: thermal imaging of leaf temperature. It is filed as in vivo, Arabidopsis. Particulars: 2 μM, 24 hours. As for the experimental part: as §1
Another test deals with PYR1-OX. Nature of the test: root growth inhibition assay. It is filed as in vivo, Arabidopsis. Particulars: 72 hours after transfer. The text has this:
(§2) Given the relatively high mandipropamid sensitivity of the MDP1 and MDP2 transgenic lines, these lines were subjected to further physiological characterization. One of ABA's physiological effects is to inhibit root growth. Mandipropamid should therefore inhibit root growth in the MDP1 and MDP2 transgenic lines, but not wild type, if it is successfully activating this ABA response. To test this, seeds of the wild type, PYR1-OX, MDP1 and MDP2 genotypes were surface sterilized in bleach and plated on to 0.7% agar petri plates containing ½ MS salts and 0.5% sucrose. After 4 days of stratification at 4° C., the plates were transferred to a growth chamber operating on a 16-hour day length cycle and allowed to germinate for 24 hours and then transferred to petri plates (0.7% agar containing ½ MS salts and 0.5% sucrose) supplemented with differing concentrations of mandipropamid. These plates were then grown vertically in a growth chamber operating on a 16-hour day length cycle. The amount of root growth after transfer was measured 72-hours later after transfer.

The test system of test [2] is MDP1 and MDP2 transgenic genotypes. The test is described as follows: root growth inhibition assay. In kind it is in vivo, Arabidopsis. Particulars: MDP1 and MDP2, 72 hours after transfer.
Text: as §2

For a further test, the system named is wild type. The test is described as follows: root growth inhibition assay. Particulars: 72 hours after transfer. It is filed as in vivo, Arabidopsis.
Text: as §2

Test [3] has as its system transgenic 35S::PYR1^MANDI tomato plants. The test is described as follows: thermal imaging of leaf temperature. Particulars: 10 μM mandipropamid, 24 hours post treatment. It is filed as in vivo. An excerpt: The core ABA response pathway is highly conserved and it is therefore expected that PYR1^MANDI should be able to activate ABA responses in response to mandipropamid in most land plants. To investigate if the physiological activity of PYR1^MANDI is functional in other species besides Arabidopsis we made transgenic 35S::PYR1^MANDI tomato. The same construct utilized for construction of Arabidopsis transgenics (described in Example 5) was modified to contain a kanamycin selection marker. Tomato was transformed by Agrobacterium-mediated transformation, which was conducted as described by Sun et al. (2006) with a few modifications. Surface sterilized tomato seeds (strain UC82B) were germinated on sterilized wet filter paper in a petridish. Cotyledons from 7-day old seedlings were excised and dipped into a suspension of Agrobacterium in MS medium containing 100 μM acetosyringone and 10 μM 2-mercaptoethanol for 10 minutes. Explants were then placed on co-cultivation medium containing MS salts, 3% sucrose, 0.3% Gelite and 1.5 mg/L zeatin. After 3 days of co-culture in darkness, the explants were transferred onto callus induction medium containing MS salts, 3% sucrose, 0.3% Gelite, 1.5 mg/L zeatin and 100 mg/L kanamycin and 125 mg/L carbenicillin. Explants were transferred to freshly prepared medium every 2 weeks. […]

The subject of test [4] is RBCS::PYR1^MANDI transgenic seeds. The test is described as follows: seed germination on mandipropamid medium. In kind it is in vivo, Arabidopsis. Particulars: 1 μM mandipropamid. The text has this: (§3) We generated a series of transgenic plants expressing PYR1^MANDI under the control of either the cauliflower mosaic virus 35S or Arabidopsis Rubisco small subunit 3B promoters (RBCS). These were generated for the purpose of examining the physiological efficacy of the PYR1^MANDI-mandipropamid system for regulating ABA responses in planta. The PYR1^MANDI coding sequence was PCR amplified from pBD-PYR1^MANDI template and cloned into the plant transformation vector pEGAD under control of the 35S promoter. For the RBCS driven construct, the 35S promoter in pEGAD was replaced with the RBCS promoter, which was amplified from Arabidopsis genomic DNA by PCR; the pEGAD vector contains a glufosinate resistance gene and allows selection of transgenics in soil using commercially available formulations of glufosinate. These two constructs, p35S::PYR1^MANDI and pRBCS::PYR1^MANDI, were introduced into Agrobacterium tumefacians GV3101 and then used to transform Arabidopsis using the floral dip method (Clough and Bent, 1998) and the resultant seed germinated in soil and treated with glufosinate to identify transformed plants. Seed from approximately 15-16 transgenic plants were harvested individually and then characterized. It is well known that ABA inhibits seed germination. […]

Test [5] has as its system 35S::PYR1^MANDI transgenic seeds. The test is described as follows: seed germination on mandipropamid medium. In kind it is in vivo, Arabidopsis. Particulars: 1 μM mandipropamid.
Text: as §3

Regarding `C#CCOc1ccc(CCNC(=O)C(OCC#C)c2ccc(Cl)cc2)cc1OC` (centres unmarked) [Mandipropamid, mandipropamid], the “leaf temperature effect of mandipropamid” value (in test [1]; in the test on wild type plants) was “not observed” in each case. Besides, the root growth entry is on record as “negligible inhibition” in the test on PYR1-OX, “inhibited” in test [2] and “negligible inhibition” in the test with wild type. In test [3], the leaf temperature result is “increase in leaf temperature”. In addition, the results for the “transgenic plants whose germination was inhibited by mandipropamid” value in test [4] and in test [5] were 7 of the 16 and 5 of the 15, respectively.
